# Source: EP0816329A1, “Benzoic acid derivatives, process for their preparation and their use for the treatment of diseases” (HOECHST AKTIENGESELLSCHAFT, priority 1996, dated 1998)
# System: Glucose-6-Phosphatase-System
# Assay: Glucose-6-phosphatase enzyme test in liver microsomes (phosphate released from glucose-6-phosphate)
# Type: biochemical, Wistar-Ratten
# Conditions: Inhibitorkonzentration 100 µM; Glucose-6-Phosphat 1 mMol/l, 0,1 mg Mikrosomen-Fraktion, pH 7,0, 20 min, room temperature
# Protocol: Die Wirkung der erfindungsgemäßen Verbindungen auf das Glucose-6-Phosphatase-System wurde in einem Enzymtest in Lebermikrosomen untersucht.
# Für die Präparation der die Glucose-6-Phosphatase enthaltenden Mikrosomen-Fraktion wurden frische Leber-Organe von männlichen Wistar-Ratten verwendet und wie in der Literatur beschrieben aufgearbeitet [Canfield, W. K. Und Arion, W.J., J. Biol. Chem. 263, 7458-7460, (1988)]. Diese Mikrosomen-Fraktion kann bei -70°C mindestens 2 Monate lang ohne signifikamten Aktivitätsverlust aufbewahrt werden.
# Der Nachweis der Glucose-6-Phosphatase-Aktivität wurde wie in der Literatur angegeben (Arion, W. J. in Methods Enzymol. 174, Academic Press 1989, Seite 58 - 67) durch Bestimmung des aus Glucose-6-Phosphat freigesetzten Phosphats durchgeführt. 0,1 ml Testansatz enthielten Glucose-6-Phosphat (1mMol/l), die Testsubstanz, 0,1 mg Mikrosomen-Fraktion und 100 mMol/l HEPES-Puffer (4-(2-Hydroxyethyl)piperazin-1-ethansulfonsäure), pH 7,0. Die Reaktion wurde durch Zugabe des Enzyms gestartet. Nach Ablauf von 20 Minuten bei Raumtemperatur wurde die Reaktion durch Zugabe von 0,2 ml Phosphat-Reagens gestoppt. Die Probe wurde 30 Minuten lang bei 37 °C inkubiert, und die Absorbtion (A) der blauen Farbe anschließend bei 570 nm gemessen. Die inhibitorische Wirksamkeit der Testsubstanz ergab sich durch Vergleich mit einer Kontroll-Reaktion, die keine Testsubstanz enthielt nach der Formel Prozent Hemmung =(A(Kontrolle) - A(Testsubstanz))/(A(Kontrolle))x 100 [formula]
# Die hemmende Wirkung der Testsubstanz (Verbindungen 1 - 43) wurde bei den in der nachfolgenden Tabelle 1 angegebenen Konzentrationen der Testsubstanz ermittelt.
row,% Hemmung,SMILES
1,53%,COc1ccc2cc(-c3ccc(NC(=O)C=Cc4ccccc4)cc3C(=O)O)ccc2c1 [Beispiel 1]
2,60%,COc1ccc2cc(-c3ccc(NC(=O)Cc4ccc(OC)c(OC)c4)cc3C(=O)O)ccc2c1 [Beispiel 2]
3,93%,COc1ccc2cc(-c3ccc(NC(=O)c4cccs4)cc3C(=O)O)ccc2c1 [Beispiel 3]
4,51%,COc1ccc2cc(-c3ccc(NC(=O)C4CC4)cc3C(=O)O)ccc2c1 [Beispiel 5]
5,61%,COc1ccc2cc(-c3ccc(NC(=O)c4ccco4)cc3C(=O)O)ccc2c1 [Beispiel 6]
6,63%,COc1ccc(OC)c(CC(=O)Nc2ccc(-c3ccc4cc(OC)ccc4c3)c(C(=O)O)c2)c1 [Beispiel 7]
7,77%,COc1ccc2cc(-c3ccc(NC(=O)c4cccc(F)c4)cc3C(=O)O)ccc2c1 [Beispiel 8]
8,64%,COc1ccc2cc(-c3ccc(NC(=O)CCC4CCCC4)cc3C(=O)O)ccc2c1 [Beispiel 9]
9,71%,O=C(Nc1ccc(-c2ccc(Cl)s2)c(C(=O)O)c1)c1ccc2ccccc2c1 [Beispiel 12]
10,53%,O=C(Nc1ccc(-c2cccs2)c(C(=O)O)c1)c1ccc2ccccc2c1 [Beispiel 13]
11,57%,O=C(Nc1ccc(-c2ccco2)c(C(=O)O)c1)c1ccc2ccccc2c1 [Beispiel 14]

# Second part, the compound before the results:
row,SMILES,% Hemmung
1,O=C(Nc1ccc(CCCCCl)c(C(=O)O)c1)Nc1ccc(Cl)c(C(F)(F)F)c1 [Beispiel 4],66%
2,O=C(CCCc1ccc(Cl)cc1)Nc1ccc(-c2ccc(Cl)s2)c(C(=O)O)c1 [Beispiel 10],62%
3,O=C(C=Cc1ccccc1)Nc1ccc(-c2ccc(Cl)s2)c(C(=O)O)c1 [Beispiel 11],57%
4,O=C(Nc1ccc(-c2ccco2)c(C(=O)O)c1)c1cnc2ccccc2n1 [Beispiel 15],63%
5,CC(C)(C)c1ccc(-c2ccc(NC(=O)COc3ccccc3)cc2C(=O)O)cc1 [Beispiel 16],50%
6,CC(C)(C)c1ccc(-c2ccc(NC(=O)C3CCCC3)cc2C(=O)O)cc1 [Beispiel 17],53%

# Same assay, conditions: Inhibitorkonzentration 12,5 µM; Glucose-6-Phosphat 1 mMol/l, 0,1 mg Mikrosomen-Fraktion, pH 7,0, 20 min, room temperature; 12.5 µM
row,% Hemmung,SMILES
1,98%,COc1cccc(C(=O)Nc2ccc(C#Cc3ccccc3)c(C(=O)O)c2)c1 [Beispiel 18]
2,100%,O=C(Nc1ccc(C#Cc2ccccc2)c(C(=O)O)c1)c1cccc(F)c1 [Beispiel 22]
3,78%,COc1cccc(C(=O)Nc2ccc(C#Cc3ccc(C)cc3)c(C(=O)O)c2)c1 [Beispiel 36]

# Continued, compound first:
row,SMILES,% Hemmung
1,N#Cc1cccc(C(=O)Nc2ccc(C#Cc3ccccc3)c(C(=O)O)c2)c1 [Beispiel 19],98%
2,O=C(Nc1ccc(C#Cc2ccccc2)c(C(=O)O)c1)c1ccccc1Cl [Beispiel 20],100%
3,O=C(Nc1ccc(C#Cc2ccccc2)c(C(=O)O)c1)c1ccc(Cl)cc1Cl [Beispiel 21],84%
4,O=C(Nc1ccc(C#Cc2ccccc2)c(C(=O)O)c1)c1cccc(C(F)(F)F)c1 [Beispiel 23],63%
5,O=C(O)c1cc(NC(=O)C2CCCCC2)ccc1C#Cc1ccccc1 [Beispiel 24],58%
6,O=C(Nc1ccc(C#Cc2ccccc2)c(C(=O)O)c1)c1cccc([N+](=O)[O-])c1 [Beispiel 25],51%
7,O=C(O)c1cc(NC(=O)c2c(F)c(F)c(F)c(F)c2F)ccc1C#Cc1ccccc1 [Beispiel 26],54%
8,CC(C)(C)CC(=O)Nc1ccc(C#Cc2ccccc2)c(C(=O)O)c1 [Beispiel 27],58%
9,CC(C)(O)C(=O)Nc1ccc(C#Cc2ccccc2)c(C(=O)O)c1 [Beispiel 28],60%
10,Cc1ccc(C#Cc2ccc(NC(=O)c3cnc4ccccc4n3)cc2C(=O)O)cc1 [Beispiel 29],73%
11,COc1ccc(C(=O)Nc2ccc(C#Cc3ccc(C)cc3)c(C(=O)O)c2)c(OC)c1 [Beispiel 30],52%
12,COc1cc(OC)cc(C(=O)Nc2ccc(C#Cc3ccc(C)cc3)c(C(=O)O)c2)c1 [Beispiel 31],64%
13,COc1ccc(C(=O)Nc2ccc(C#Cc3ccc(C)cc3)c(C(=O)O)c2)cc1OC [Beispiel 32],61%
14,Cc1ccc(C#Cc2ccc(NC(=O)c3cc(C(F)(F)F)cc(C(F)(F)F)c3)cc2C(=O)O)cc1 [Beispiel 33],77%
15,Cc1ccc(C#Cc2ccc(NC(=O)c3cccc(C(F)(F)F)c3)cc2C(=O)O)cc1 [Beispiel 34],50%
16,Cc1ccc(C#Cc2ccc(NC(=O)CCC3CCCC3)cc2C(=O)O)cc1 [Beispiel 35],76%
17,Cc1ccc(C#Cc2ccc(NC(=O)c3cccc(Cl)c3)cc2C(=O)O)cc1 [Beispiel 37],55%
18,Cc1ccc(C#Cc2ccc(NC(=O)c3cccc([N+](=O)[O-])c3)cc2C(=O)O)cc1 [Beispiel 38],50%
19,Cc1ccc(C#Cc2ccc(NS(=O)(=O)c3ccc([N+](=O)[O-])cc3)cc2C(=O)O)cc1 [Beispiel 39],62%
20,Cc1ccc(C#Cc2ccc(NC(=O)C(C)C)cc2C(=O)O)cc1 [Beispiel 40],94%
21,Cc1ccc(C#Cc2ccc(NC(=O)C(F)(F)C(F)(F)C(F)(F)F)cc2C(=O)O)cc1 [Beispiel 41],71%
22,Cc1ccc(C#Cc2ccc(NC(=O)c3cccc4ccccc34)cc2C(=O)O)cc1 [Beispiel 42],60%
23,Cc1ccc(C#Cc2ccc(NC(=O)c3ccccc3O)cc2C(=O)O)cc1 [Beispiel 43],55%
